{"source": "patent US10160785B2", "about": "“Antimicrobial peptides and their use for the treatment of topical infections” (priority 2015, dated 2018)", "key": {"Candida krusei ATCC 6258": {"test_system": "Candida krusei ATCC 6258", "experiment": "microbe, parasite or virus in culture", "type": "cell-based", "conditions": "RPMI broth microdilution, 35° C., 48 hours, visual", "summary_of_the_method": "(§1)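 RPMI 1640/0.165 M MOPS microdilution; peptides 0.625–160 μmol.l^−1 as pipetted; final 5×10^2–2.5×10^3 CFU/ml; 35 °C, static, 48 h; visual MIC = no-growth endpoint.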"}, "[1]": {"test_system": "Candida tropicalis ATCC 750", "experiment": "microbe, parasite or virus in culture", "type": "cell-based", "conditions": "RPMI broth microdilution, 35° C., 48 hours, visual", "summary_of_the_method": "as §1"}, "Candida glabrata DSY 565": {"test_system": "Candida glabrata DSY 565", "experiment": "microbe, parasite or virus in culture", "type": "cell-based", "conditions": "RPMI broth microdilution, 35° C., 48 hours, visual", "summary_of_the_method": "as §1"}, "[2]": {"test_system": "Candida albicans (Olomouc)", "experiment": "microbe, parasite or virus in culture", "type": "cell-based", "conditions": "RPMI broth microdilution, 35° C., 48 hours, visual", "summary_of_the_method": "as §1"}, "[3]": {"test_system": "Candida dubliniensis ATCC MYA-646", "experiment": "microbe, parasite or virus in culture", "type": "cell-based", "conditions": "RPMI broth microdilution, 35° C., 48 hours, visual", "summary_of_the_method": "as §1"}, "[4]": {"test_system": "Candida albicans ATCC MYA-2876", "experiment": "microbe, parasite or virus in culture", "type": "cell-based", "conditions": "RPMI broth microdilution, 35° C., 48 hours, visual", "summary_of_the_method": "as §1"}, "[5]": {"test_system": "Candida glabrata ATCC 2001", "experiment": "microbe, parasite or virus in culture", "type": "cell-based", "conditions": "RPMI broth microdilution, 35° C., 48 hours, visual", "summary_of_the_method": "as §1"}, "[6]": {"test_system": "S. aureus (Liberec) biofilm", "experiment": "Bacterial biofilm, remaining metabolic activity (MTT)", "type": "cell-based, Staphylococcus aureus", "conditions": "remaining metabolic activity of biofilm, 20 h", "summary_of_the_method": "(§2)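 Biofilms of S. aureus or P. aeruginosa (Liberec) were grown 24 h at 37° C with shaking in BHI plus 1% glucose from ca. 10^8 CFU/ml inocula. After washing, biofilms were exposed 20 h to peptides at 1–128 μmol.l^−1. Surviving metabolic activity was measured by MTT (40 min, formazan in DMSO, A540) as percent of untreated biofilm, blank-corrected.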"}, "in vitro": {"experiment": "in vitro", "conditions": "human", "summary_of_the_method": "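Peptides at 2-200 μmol.l^−1 incubated 1 h at 37 °C with 5% v/v human erythrocyte suspension in physiological solution. Released haemoglobin in supernatant read at 540 nm against buffer (0%) and 0.2% Triton X100 (100%) lysis controls. LC50 is the peptide concentration lysing 50% of cells.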"}, "[7]": {"test_system": "P. aeruginosa (Liberec) biofilm", "experiment": "Bacterial biofilm, remaining metabolic activity (MTT)", "type": "cell-based, Pseudomonas aeruginosa", "conditions": "remaining metabolic activity of biofilm, 20 h", "summary_of_the_method": "as §2"}, "[8]": {"conditions": "peptide concentration 8 μmol · l^−1"}, "[9]": {"conditions": "peptide concentration 16 μmol · l^−1"}, "[10]": {"conditions": "peptide concentration 32 μmol · l^−1"}, "[11]": {"conditions": "peptide concentration 64 μmol · l^−1"}, "[12]": {"conditions": "peptide concentration 128 μmol · l^−1"}}, "note": "Where a SMILES comes first, the peptide text is derived from it.", "data": [{"smiles": "CCCC[C@H](NC(=O)[C@H](CC(C)C)NC(=O)[C@H](CO)NC(=O)[C@H](CO)NC(=O)[C@H](CCCC)NC(=O)[C@@H](NC(=O)CN)[C@@H](C)CC)C(=O)N[C@@H](CCCCN)C(=O)N[C@@H](CCCCN)C(=O)N[C@@H](CC(C)C)C(=O)N[C@@H](CCCCN)C(=O)N[C@@H](CCCCN)C(=O)N[C@H](C(=O)N[C@H](C(=O)N[C@@H](C)C(=O)N[C@@H](CCCCN)C(N)=O)[C@@H](C)CC)[C@@H](C)CC", "note": "[V] (HELM PEPTIDE1{G.I.[Nle].S.S.L.[Nle].K.K.L.K.K.I.I.A.K.[am]}$$$$V2.0)", "values": [{"measurement": "Antifungal activity MIC C. krusei ATCC 6258", "setting": "Candida krusei ATCC 6258", "result": 5.0, "unit": "µM"}, {"measurement": "Antifungal activity MIC C. tropicalis ATCC 750", "setting": "[1]", "result": 1.0, "unit": "µM"}, {"measurement": "Antifungal activity MIC C. glabrata DSY 565", "setting": "Candida glabrata DSY 565", "result": 44.0, "unit": "µM"}, {"measurement": "Antifungal activity MIC C. albicans Olomouc", "setting": "[2]", "result": 12.0, "unit": "µM"}, {"measurement": "Antifungal activity MIC C. dubliniensis ATCC MYA-646", "setting": "[3]", "result": 26.0, "unit": "µM"}, {"measurement": "Antifungal activity MIC C. albicans ATCC MYA-2876", "setting": "[4]", "result": 19.0, "unit": "µM"}, {"measurement": "Antifungal activity MIC C. glabrata ATCC 2001", "setting": "[5]", "result": 24.0, "unit": "µM"}, {"measurement": "Metabolic activity (%) S. aureus (Liberec)", "setting": "[6]; [8]", "result": 83.0, "unit": "%"}, {"measurement": "Metabolic activity (%) S. aureus (Liberec)", "setting": "[6]; [9]", "result": 71.0, "unit": "%"}, {"measurement": "Metabolic activity (%) S. aureus (Liberec)", "setting": "[6]; [10]", "result": 49.5, "unit": "%"}, {"measurement": "Metabolic activity (%) S. aureus (Liberec)", "setting": "[6]; [11]", "result": 26.0, "unit": "%"}, {"measurement": "Metabolic activity (%) S. aureus (Liberec)", "setting": "[6]; [12]", "result": 0.0, "unit": "%"}, {"measurement": "HC50 at 1 h", "setting": "in vitro", "result": 373, "unit": "µM"}, {"measurement": "Metabolic activity (%) P. aeruginosa (Liberec)", "setting": "[7]; [8]", "result": 65.5, "unit": "%"}, {"measurement": "Metabolic activity (%) P. aeruginosa (Liberec)", "setting": "[7]; [9]", "result": 59.8, "unit": "%"}, {"measurement": "Metabolic activity (%) P. aeruginosa (Liberec)", "setting": "[7]; [10]", "result": 64.9, "unit": "%"}, {"measurement": "Metabolic activity (%) P. aeruginosa (Liberec)", "setting": "[7]; [11]", "result": 61.4, "unit": "%"}, {"measurement": "Metabolic activity (%) P. aeruginosa (Liberec)", "setting": "[7]; [12]", "result": 49.3, "unit": "%"}]}]}
